# According to ChEMBL document CHEMBL1201862, “PubChem BioAssay data set” (2004):
#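 Cultured in 96-well plates, cells were exposed to test compound for 48 hours across five concentrations. GI50: concentration for 50% inhibition of growth.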 Active and inactive are the calls of the source. Rule as the data show it: active = GI50 up to about 1.1 µM and inactive = higher.
# Experiments:
# Test in all cases: growth of human tumour cells (NCI), 48 h
# SNB-75 = tested on: SNB-75
# SF-539 = tested on: SF-539
# 786-0 = tested on: 786-0
# DU-145 = tested on: DU-145
# MDA-MB-231 = tested on: MDA-MB-231
# SN12C = tested on: SN12C
# SR = tested on: SR
# PC-3 = tested on: PC-3
# RPMI-8226 = tested on: RPMI-8226
# CCRF-CEM = tested on: CCRF-CEM
# HOP-62 = tested on: HOP-62
# NCI-H23 = tested on: NCI-H23
# HOP-92 = tested on: HOP-92
# BT-549 = tested on: BT-549
# HT-29 = tested on: HT-29
# K562 = tested on: K562
# OVCAR-3 = tested on: OVCAR-3
# UACC-257 = tested on: UACC-257
# MDA-MB-435 = tested on: MDA-MB-435
# RXF 393 = tested on: RXF 393
# UO-31 = tested on: UO-31
# SW-620 = tested on: SW-620
# SF-268 = tested on: SF-268
# Malme-3M = tested on: Malme-3M
# NCI-H522 = tested on: NCI-H522
# MCF7 = tested on: MCF7
# MDA-N = tested on: MDA-N
# M14 = tested on: M14
# SNB-19 = tested on: SNB-19
# MOLT-4 = tested on: MOLT-4
# CAKI-1 = tested on: CAKI-1
# OVCAR-8 = tested on: OVCAR-8
# HL-60 = tested on: HL-60
# OVCAR-4 = tested on: OVCAR-4
# A549 = tested on: A549
# T47D = tested on: T47D
# OVCAR-5 = tested on: OVCAR-5
# COLO 205 = tested on: COLO 205
# HCT-15 = tested on: HCT-15
# IGROV-1 = tested on: IGROV-1
# A498 = tested on: A498
# SK-MEL-5 = tested on: SK-MEL-5
# NCI-H460 = tested on: NCI-H460
# SF-295 = tested on: SF-295
# NCI-H226 = tested on: NCI-H226
# TK-10 = tested on: TK-10
# SK-OV-3 = tested on: SK-OV-3
# U-251 = tested on: U-251
# SK-MEL-2 = tested on: SK-MEL-2
# ACHN = tested on: ACHN
# KM12 = tested on: KM12
# NCI/ADR-RES = tested on: NCI/ADR-RES
# EKVX = tested on: EKVX
# UACC-62 = tested on: UACC-62
# HCT-116 = tested on: HCT-116
# Hs-578T = tested on: Hs-578T
# LOX IMVI = tested on: LOX IMVI
# SK-MEL-28 = tested on: SK-MEL-28
# HCC 2998 = tested on: HCC 2998
smiles,measurement,setting,value
O=C1c2ccccc2-c2ccc(NC(=O)C3CCCCC3C(=O)O)cc21 (stereo not drawn),GI50,SNB-75,> 100 µM (inactive)
same,GI50,SF-539,> 100 µM (inactive)
same,GI50,786-0,> 100 µM (inactive)
same,GI50,DU-145,> 100 µM (inactive)
same,GI50,MDA-MB-231,> 100 µM (inactive)
same,GI50,SN12C,96.4 µM (inactive)
same,GI50,SR,> 100 µM (inactive)
same,GI50,PC-3,> 100 µM (inactive)
same,GI50,RPMI-8226,> 100 µM (inactive)
same,GI50,CCRF-CEM,> 100 µM (inactive)
same,GI50,HOP-62,> 100 µM (inactive)
same,GI50,NCI-H23,> 100 µM (inactive)
same,GI50,HOP-92,> 100 µM (inactive)
same,GI50,BT-549,> 100 µM (inactive)
same,GI50,HT-29,87.3 µM (inactive)
same,GI50,K562,> 100 µM (inactive)
same,GI50,OVCAR-3,> 100 µM (inactive)
same,GI50,UACC-257,> 100 µM (inactive)
same,GI50,MDA-MB-435,> 100 µM (inactive)
same,GI50,RXF 393,> 100 µM (inactive)
same,GI50,UO-31,> 100 µM (inactive)
same,GI50,SW-620,> 100 µM (inactive)
same,GI50,SF-268,> 100 µM (inactive)
same,GI50,Malme-3M,> 100 µM (inactive)
same,GI50,NCI-H522,> 100 µM (inactive)
same,GI50,MCF7,85.5 µM (inactive)
same,GI50,MDA-N,> 100 µM (inactive)
same,GI50,M14,> 100 µM (inactive)
same,GI50,SNB-19,> 100 µM (inactive)
same,GI50,MOLT-4,> 100 µM (inactive)
same,GI50,CAKI-1,> 100 µM (inactive)
same,GI50,OVCAR-8,> 100 µM (inactive)
same,GI50,HL-60,> 100 µM (inactive)
same,GI50,OVCAR-4,> 100 µM (inactive)
same,GI50,A549,> 100 µM (inactive)
same,GI50,T47D,> 100 µM (inactive)
same,GI50,OVCAR-5,> 100 µM (inactive)
same,GI50,COLO 205,> 100 µM (inactive)
same,GI50,HCT-15,> 100 µM
same,GI50,IGROV-1,> 100 µM (inactive)
same,GI50,A498,> 100 µM (inactive)
same,GI50,SK-MEL-5,> 100 µM (inactive)
same,GI50,NCI-H460,> 100 µM (inactive)
same,GI50,SF-295,> 100 µM (inactive)
same,GI50,NCI-H226,> 100 µM (inactive)
same,GI50,TK-10,> 100 µM (inactive)
same,GI50,SK-OV-3,> 100 µM (inactive)
same,GI50,U-251,> 100 µM (inactive)
same,GI50,SK-MEL-2,> 100 µM (inactive)
same,GI50,ACHN,> 100 µM (inactive)
same,GI50,KM12,> 100 µM (inactive)
same,GI50,NCI/ADR-RES,> 100 µM (inactive)
same,GI50,EKVX,> 100 µM (inactive)
same,GI50,UACC-62,> 100 µM (inactive)
same,GI50,HCT-116,> 100 µM (inactive)
same,GI50,Hs-578T,> 100 µM (inactive)
same,GI50,LOX IMVI,> 100 µM (inactive)
same,GI50,SK-MEL-28,> 100 µM (inactive)
Cc1ccc2c(c1)SSSSS2,GI50,SNB-75,23.8 µM (inactive)
same,GI50,786-0,15.8 µM (inactive)
same,GI50,DU-145,16.6 µM (inactive)
same,GI50,MDA-MB-231,25.6 µM (inactive)
same,GI50,SN12C,16.5 µM (inactive)
same,GI50,SR,40.3 µM (inactive)
same,GI50,PC-3,22.5 µM (inactive)
same,GI50,CCRF-CEM,4.1 µM (inactive)
same,GI50,HOP-62,20.2 µM (inactive)
same,GI50,NCI-H23,20.8 µM (inactive)
same,GI50,HOP-92,18.5 µM (inactive)
same,GI50,BT-549,19.8 µM (inactive)
same,GI50,HT-29,28.1 µM (inactive)
same,GI50,K562,22.1 µM (inactive)
same,GI50,OVCAR-3,21.8 µM (inactive)
same,GI50,UACC-257,17.6 µM (inactive)
same,GI50,MDA-MB-435,21 µM (inactive)
same,GI50,RXF 393,21.1 µM (inactive)
same,GI50,UO-31,16.3 µM (inactive)
same,GI50,SW-620,15.1 µM (inactive)
same,GI50,SF-268,25.8 µM (inactive)
same,GI50,Malme-3M,17.7 µM (inactive)
same,GI50,NCI-H522,16.3 µM (inactive)
same,GI50,MCF7,18.6 µM (inactive)
same,GI50,MDA-N,23.4 µM (inactive)
same,GI50,M14,21.3 µM (inactive)
same,GI50,SNB-19,20.6 µM (inactive)
same,GI50,MOLT-4,30.5 µM (inactive)
same,GI50,CAKI-1,21 µM (inactive)
same,GI50,OVCAR-8,21.9 µM (inactive)
same,GI50,HL-60,20 µM (inactive)
same,GI50,OVCAR-4,18.3 µM (inactive)
same,GI50,A549,20.4 µM (inactive)
same,GI50,T47D,12.6 µM (inactive)
same,GI50,OVCAR-5,22.1 µM (inactive)
same,GI50,COLO 205,29.4 µM (inactive)
same,GI50,HCT-15,14.1 µM
same,GI50,IGROV-1,19.3 µM (inactive)
same,GI50,A498,18.9 µM (inactive)
same,GI50,SK-MEL-5,19.1 µM (inactive)
same,GI50,HCC 2998,17.7 µM (inactive)
same,GI50,NCI-H460,18.4 µM (inactive)
same,GI50,SF-295,19.8 µM (inactive)
same,GI50,TK-10,20 µM (inactive)
same,GI50,SK-OV-3,21.9 µM (inactive)
same,GI50,U-251,34.3 µM (inactive)
same,GI50,ACHN,18.4 µM (inactive)
same,GI50,KM12,18.9 µM (inactive)
same,GI50,NCI/ADR-RES,25.4 µM (inactive)
same,GI50,EKVX,23.3 µM (inactive)
same,GI50,UACC-62,18.3 µM (inactive)
same,GI50,HCT-116,14.3 µM (inactive)
same,GI50,Hs-578T,26.9 µM (inactive)
same,GI50,LOX IMVI,16.2 µM (inactive)
same,GI50,SK-MEL-28,17.1 µM (inactive)
